Tests used:
p38a/MK2 = p38a/MK2 (Homo sapiens (Human), UniProt P49137+Q16539); assay: biochemical; settings: 10-point 1:3 dilution, top dose 1 μM; 10 μM ATP, 2 h incubation; read-out: p38a/MK2 (1 μM) Enzyme pIC50 (converted)
Procedure, shortened: (§1)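 Recombinant N-terminal GST-tagged MK2 (F46-H400) or PRAK (M1-Q471), expressed in E. coli, were activated by p38. Activity read as phosphorylation of FITC-conjugated HSP27 peptide. IC50 taken as half-maximal inhibition of activation from 10-point 1:3 dilutions, top dose 1 or 10 μM for MK2 and 300 μM for PRAK.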

p38a/PRAK = p38a/PRAK (Homo sapiens (Human), UniProt Q16539); assay: biochemical; settings: 10-point 1:3 dilution, top dose 300 μM; 10 μM ATP, 2 h incubation; read-out: p38a/PRAK Enzyme pIC50 (converted)
Procedure, shortened: as §1

Sequence of p38a/PRAK (Q16539 whole entry): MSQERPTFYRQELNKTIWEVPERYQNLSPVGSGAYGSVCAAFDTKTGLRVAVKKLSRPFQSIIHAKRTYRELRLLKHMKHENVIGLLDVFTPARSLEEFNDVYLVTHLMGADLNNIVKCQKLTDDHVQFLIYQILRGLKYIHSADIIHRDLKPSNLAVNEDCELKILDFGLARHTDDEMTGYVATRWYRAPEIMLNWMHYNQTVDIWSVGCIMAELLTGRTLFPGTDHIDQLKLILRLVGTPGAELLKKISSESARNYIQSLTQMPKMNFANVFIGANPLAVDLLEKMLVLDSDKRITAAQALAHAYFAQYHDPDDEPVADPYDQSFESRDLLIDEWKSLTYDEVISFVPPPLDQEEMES
Sequence of p38a/MK2 (Q16539 whole entry): as above
Sequence of p38a/MK2 (P49137 46-400): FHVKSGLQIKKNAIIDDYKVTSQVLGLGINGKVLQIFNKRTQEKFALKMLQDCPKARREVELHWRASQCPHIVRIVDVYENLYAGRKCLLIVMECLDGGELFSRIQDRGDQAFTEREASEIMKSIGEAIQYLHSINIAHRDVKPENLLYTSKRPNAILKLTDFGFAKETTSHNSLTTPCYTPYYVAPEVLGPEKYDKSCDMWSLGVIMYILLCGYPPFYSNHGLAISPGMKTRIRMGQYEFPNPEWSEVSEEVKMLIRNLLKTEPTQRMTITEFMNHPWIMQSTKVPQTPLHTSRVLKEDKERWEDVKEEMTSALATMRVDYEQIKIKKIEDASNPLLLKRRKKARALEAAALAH

IC50 (p38a/MK2): > 0.1 µM
IC50 (p38a/PRAK): > 316 µM
Compound: [2H]C([2H])(Oc1cc(C)n(-c2cc(-n3ccnc(C(C)(C)O)c3=O)ncc2C)c(=O)c1Cl)c1ncc(C)cc1F (single isomer, unassigned) [Example 28B, rel-3-chloro-4-[(3-fluoro-5-methylpyridin-2-yl)(2H2)methoxy]-2′-[3-(2-hydroxypropan-2-yl)-2-oxopyrazin-1-yl]-5′,6-dimethyl-[1,4′-bipyridin]-2-one]
